The values below come from patent US8815772B2, “Fungicidal heterocyclic carboxamides” (E I du Pont de Nemours and Company, priority 2012, dated 2014).

Marks after values point to notes of the source that are not given here.

Data set [1] has as its system Blumeria graminis f. sp. tritici. In words: Test H: wheat powdery mildew, preventive spray on wheat seedlings, visual disease rating.
Text: General protocol for preparing test suspensions for Tests A-H: the test compounds were first dissolved in acetone in an amount equal to 3% of the final volume and then suspended at the desired concentration (in ppm) in acetone and purified water (50/50 mix by volume) containing 250 ppm of the surfactant Trem® 014 (polyhydric alcohol esters). The resulting test suspensions were then used in Tests A-H. Spraying a 200 ppm test suspension to the point of run-off on the test plants was the equivalent of a rate of 600 g/ha. Unless otherwise indicated, the rating values indicate a 200 ppm test suspension was used. (In Table A, an asterisk “*” next to the rating value indicates a 40 ppm test suspension was used; a double asterisk “**” next to the rating value indicates a 130 ppm.)
The test suspension was sprayed to the point of run-off on wheat seedlings. The following day the seedlings were inoculated with a spore dust of Blumeria graminis f. sp. tritici (also known as Erysiphe graminis f. sp. tritici, the causal agent of wheat powdery mildew) and incubated in a growth chamber at 20° C. for 8 days, after which time visual disease ratings were made.
(§2) An asterisk “*” next to the rating value indicates a 40 ppm test suspension was used, a double asterisk “**” next to the rating value indicates a 130 ppm test suspension was used.
Data set [2] has as its system Puccinia recondita f. sp. tritici. In words: Test G: wheat leaf rust, preventive spray on wheat seedlings, visual disease rating.
Text: (§3) General protocol for preparing test suspensions for Tests A-H: the test compounds were first dissolved in acetone in an amount equal to 3% of the final volume and then suspended at the desired concentration (in ppm) in acetone and purified water (50/50 mix by volume) containing 250 ppm of the surfactant Trem® 014 (polyhydric alcohol esters). The resulting test suspensions were then used in Tests A-H. Spraying a 200 ppm test suspension to the point of run-off on the test plants was the equivalent of a rate of 600 g/ha. Unless otherwise indicated, the rating values indicate a 200 ppm test suspension was used.
The test suspension was sprayed to the point of run-off on wheat seedlings. The following day the seedlings were inoculated with a spore suspension of Puccinia recondita f. sp. tritici (the causal agent of wheat leaf rust) and incubated in a saturated atmosphere at 20° C. for 24 h, and then moved to a growth chamber at 20° C. for 6 days, after which time visual disease ratings were made.
as §2
The next data set deals with Botrytis cinerea. In words: Test B: tomato botrytis, preventive spray on tomato seedlings, visual disease rating. The following applies: for Test B rating (disease control): rating without asterisk, 100 = 100% disease control, 0 = no disease control relative to the controls.
In a further data set the test system is Phytophthora infestans. The class given is in vivo. As to conditions: rating without asterisk; 100 = 100% disease control, 0 = no disease control relative to the controls.
For another data set, the system named is Septoria tritici. In words: Test F: wheat leaf blotch, preventive spray on wheat seedlings, visual disease rating. The class given is in vivo. An excerpt: (§1) A dash (-) indicates no test results.
The test system of a further data set is Plasmopara viticola. In words: Test A: grape downy mildew, curative spray on grape seedlings, visual disease rating. The class given is in vivo. The following applies: rating without asterisk; 100 = 100% disease control, 0 = no disease control relative to the controls. An excerpt: Upon removal, visual disease ratings were made. […] A dash (-) indicates no test results.

The test system of another data set is Septoria nodorum. In words: Test E: Septoria glume blotch, preventive spray on wheat seedlings, visual disease rating. Format: in vivo.
Text: as §1

A further data set has as its system cucumber seedlings. In words: Test I: phytotoxicity to the cucumber seedlings of the test units. As to conditions: 250 ppm active ingredient applied to soil, 7 days. Format: in vivo. The protocol:
Control of the southern root-knot nematode (Meloidogyne incognita) through contact and/or systemic means was evaluated in test units consisting of small open containers filled with a sandy soil mixture and cucumber seedlings.
Test compounds were formulated using a solution containing 50% acetone and 50% water. Test compounds were applied directly to the soil of the test units at concentrations of 250 or 50 ppm active ingredient. Each test was replicated 3 times. After treatment, the test units were allowed to dry for 1 h, after which time about 250 second-stage juvenile (J2) larvae were pipetted into the soil. The test units were held at 27° C. and watered as needed for 7 days.
Nematocidal efficacy was determined by the amount of root gall formation observed when compared to an untreated control. No gall formation was indicative of 100% nematode control. Gall formation equivalent to that found in the untreated control was indicative of 0% control. No nematode control rating was given to compounds showing significant phytotoxicity.

Another data set concerns Alternaria solani. In words: Test C: tomato early blight, preventive spray on tomato seedlings, visual disease rating. Format: in vivo. The following applies: rating without asterisk; 100 = 100% disease control, 0 = no disease control relative to the controls.
Text: as §1

Where [3] appears, read: rating without asterisk, 100 = 100% disease control, 0 = no disease control relative to the controls.

Text for Botrytis cinerea: as §3
The test suspension was sprayed to the point of run-off on tomato seedlings. The following day the seedlings were inoculated with a spore suspension of Botrytis cinerea (the causal agent of tomato botrytis) and incubated in saturated atmosphere at 20° C. for 48 h, and then moved to a growth chamber at 24-27° C. for 2-3 days, after which time visual disease ratings were made.
A dash (-) indicates no test results. An asterisk “*” next to the rating value indicates a 40 ppm test suspension was used, a double asterisk “**” next to the rating value indicates a 130 ppm test suspension was used.

Turning to `O=C(NCCc1ncc(-n2ccc(C(F)(F)F)n2)cc1Cl)c1ccccc1C(F)(F)F` [Compound 85, N-[2-[3-chloro-5-[(3-trifluoromethyl)-1H-pyrazol-1-yl]-2-pyridinyl]ethyl]-2-(trifluoromethyl)benzamide], the “Test H rating (disease control)” value in [1] (setting [3]) was found to be 100%. Besides, the “Test G rating (disease control)” value in [2] (setting [3]) worked out at 0%. In addition, the “Test B rating (disease control)” value in the data set on Botrytis cinerea is given as 95%. Also, the “Test D rating (disease control)” value with Phytophthora infestans was determined as 0%. Also, the “Test F rating (disease control)” value in the data set on Septoria tritici (setting [3]) is listed as 100%. Also, the “Test A rating (disease control)” value with Plasmopara viticola worked out at 0%. Further, in the data set on Septoria nodorum (setting [3]), the “Test E rating (disease control)” value was 100%.

Consider `O=C(Nc1ccccc1-c1cc(F)c(-n2ccc(C(F)(F)F)n2)c(F)c1)c1ncccc1C(F)(F)F` [Compound 172, N-[3′,5′-difluoro-4′-[3-(trifluoromethyl)-1H-pyrazol-yl][1,1′-biphenyl]-2-yl]-3-(trifluoromethyl)-2-pyridinecarboxamide], for which, in [1] (setting [3]), the “Test H rating (disease control)” value is recorded as 100%. Moreover, the “Test G rating (disease control)” value in data set [2] (setting [3]) is recorded as 100%. Moreover, the “Test B rating (disease control)” value in the data set on Botrytis cinerea is 65%. Further, in the data set with Phytophthora infestans, the “Test D rating (disease control)” value came to 0%. Moreover, in the data set with Septoria tritici (setting [3]), the “Test F rating (disease control)” value turned out to be 100%. In addition, the “Test A rating (disease control)” value in the data set on Plasmopara viticola was found to be 0%. Also, the “Test E rating (disease control)” value with Septoria nodorum (setting [3]) turned out to be 100%.

As for `Cn1cc(C(=O)Nc2ccccc2-c2cc(F)c(-n3ccc(C(F)(F)F)n3)c(F)c2)c(C(F)F)n1` [Compound 173, 3-(difluoromethyl)-N-[3′,5′-difluoro-4′-[3-(trifluoromethyl)-1H-pyrazol-1-yl][1,1′-biphenyl]-2-yl]-1-methyl-1H-pyrazole-4-carboxamide], the “Test H rating (disease control)” value in data set [1] (setting [3]) is reported as 100%. Also, the “Test G rating (disease control)” value in data set [2] (setting [3]) worked out at 100%. The “Test B rating (disease control)” value in the data set with Botrytis cinerea was 72%. Besides, the “Test D rating (disease control)” value with Phytophthora infestans came to 0%. Moreover, the “Test F rating (disease control)” value with Septoria tritici (setting [3]) was 100%. Also, the “Test A rating (disease control)” value in the data set on Plasmopara viticola was 0%. For the same compound, the “Test E rating (disease control)” value in the data set on Septoria nodorum (setting [3]) worked out at 100%.

Take `O=C(NCCc1ccc(-n2ccc(C(F)(F)F)n2)cc1Cl)c1ncccc1C(F)(F)F` [Compound 40, N-[2-[2-chloro-4-[3-(trifluoromethyl)-1H-pyrazol-1-yl]phenyl]ethyl]-3-(trifluoromethyl)-2-pyridinecarboxamide]: the “Test H rating (disease control)” value in [1] (setting [3]) is recorded as 100%. Moreover, in data set [2] (setting [3]), the “Test G rating (disease control)” value is on record as 0%. For the same compound, in the data set with Botrytis cinerea, the “Test B rating (disease control)” value stood at 66%. In addition, the “Test D rating (disease control)” value in the data set with Phytophthora infestans stood at 0%. The “Test F rating (disease control)” value with Septoria tritici (setting [3]) came to 100%. The “Test E rating (disease control)” value in the data set with Septoria nodorum (setting [3]) was found to be 100%. In addition, the phytotoxicity result in the data set on cucumber seedlings is on record as “no significant phytotoxicity”.

“3-difluoromethyl)-N-[3′,5′-difluoro-4′-(1-methyl-1H-pyrazol-3-yl)[1,1′-biphenyl]-2-yl]-1-methyl-1H-pyrazole [Compound 232]”: the “Test H rating (100 = 100% disease control, 0 = no disease control relative to the controls)” value in [1] (no asterisk: standard test suspension, wheat powdery mildew) was found to be 97%. In [2] (no asterisk: standard test suspension, wheat leaf rust), the “Test G rating (100 = 100% disease control, 0 = no disease control relative to the controls)” value is listed as 100%. The “Test B rating (100 = 100% disease control, 0 = no disease control relative to the controls)” value with Botrytis cinerea (no asterisk: standard test suspension, tomato botrytis) stood at 81%.

Regarding `O=C(Nc1ccccc1-c1cc(F)c(-n2ccc(C(F)(F)F)n2)c(F)c1)c1cccnc1Cl` [Compound 170, 2-chloro-N-[3′,5′-difluoro-4′-[3-(trifluoromethyl)-1H-pyrazol-1-yl][1,1′-biphenyl]-2-yl]-3-pyridinecarboxamide], in [1] (setting [3]), the “Test H rating (disease control)” value was determined as 100%. Also, in data set [2] (setting [3]), the “Test G rating (disease control)” value was 100%. Further, the “Test B rating (disease control)” value with Botrytis cinerea worked out at 0%. Moreover, the “Test D rating (disease control)” value in the data set on Phytophthora infestans was 0%. Besides, the “Test F rating (disease control)” value with Septoria tritici (setting [3]) amounted to 100%. The “Test A rating (disease control)” value in the data set with Plasmopara viticola worked out at 0%. In addition, the “Test E rating (disease control)” value in the data set on Septoria nodorum (setting [3]) is given as 0%.

As to `O=C(NCC(F)(F)c1ccc(-n2ccc(C(F)(F)F)n2)cc1Cl)c1ncccc1C(F)(F)F` [Compound 150, N-[2-[2-chloro-4-[3-(trifluoromethyl)-1H-pyrazol-1-yl]phenyl]-2,2-difluoroethyl]-3-(trifluoromethyl)-2-pyridinecarboxamide], the “Test H rating (disease control)” value in [1] (* 40 ppm test suspension) was 100* %. Besides, the “Test G rating (disease control)” value in data set [2] (* 40 ppm test suspension) is on record as 0* %. Also, in the data set with Septoria tritici (* 40 ppm test suspension), the “Test F rating (disease control)” value is reported as 100* %. In addition, the “Test E rating (disease control)” value in the data set with Septoria nodorum (* 40 ppm test suspension) is 100* %. Further, the phytotoxicity result in the data set with cucumber seedlings is recorded as “no significant phytotoxicity”.

As to `O=C(NCCc1ccc(-n2ccc(C(F)(F)F)n2)cc1)c1ccccc1C(F)(F)F` [Compound 5, 2-(trifluoromethyl)-N-[2-[4-[3-(trifluoromethyl)-1H-pyrazol-1-yl]phenyl]ethyl]benzamide], the “Test H rating (disease control)” value in data set [1] (setting [3]) stood at 96%. Further, the “Test G rating (disease control)” value in data set [2] (setting [3]) was 0%. Moreover, the “Test B rating (disease control)” value in the data set with Botrytis cinerea stood at 17%. Besides, in the data set on Phytophthora infestans, the “Test D rating (disease control)” value came to 0%. Besides, the “Test F rating (disease control)” value in the data set with Septoria tritici (setting [3]) came to 100%. Further, in the data set on Septoria nodorum (setting [3]), the “Test E rating (disease control)” value is recorded as 0%. In the data set on cucumber seedlings, the phytotoxicity entry is recorded as “no significant phytotoxicity”. Besides, the “Test C rating (disease control)” value in the data set with Alternaria solani is reported as 83%.

As to `CC(Cc1ccc(-n2ccc(C(F)(F)F)n2)cc1Cl)NC(=O)c1nccnc1Cl` (stereo not drawn) [Compound 1], the “Test H rating (disease control)” value in data set [1] (setting [3]) was 100%. Further, in data set [2] (setting [3]), the “Test G rating (disease control)” value is on record as 54%. Also, the “Test B rating (disease control)” value with Botrytis cinerea is reported as 99%. For the same compound, the “Test D rating (disease control)” value with Phytophthora infestans came out at 0%. Moreover, the “Test F rating (disease control)” value in the data set on Septoria tritici (setting [3]) came out at 100%. The “Test E rating (disease control)” value in the data set on Septoria nodorum (setting [3]) worked out at 100%.
